Data: patent US4804665A, “Azaspiro compounds and their use” (Takeda Chemical Industries, Ltd., priority 1986, dated 1989)
Structures can show the parent of a compound that is named as a salt.

Assays:
[1] = LD50 value and Therapeutic index; conditions: mouse, in vivo, po; for LD50: mice; for selectivity ratio: ratio of LD50 value to MED for CO2-induced amnesia
From the text: LD50 value and Therapeutic index
Ten mice were used for each group. LD50 value and therapeutic index were estimated with the dose (mg/kg, p.o.) which induced death in 50% of mice and with a ratio of LD50 value to a minimum effective dose (MED) for CO2 -induced amnesia, respectively.

[2] = test system: CO2-induced amnesia in mice; assay: Effect on CO2-induced amnesia in mice (passive avoidance response); assay type: in vivo, mice (male ICR); conditions: p.o.; for minimal effective dose: Mus musculus, po, mice, read-out: Anti-amnesia MED (minimum effective dose for CO2-induced amnesia); for Anti-amnesia (latency, percent change of the mean time of the vehicle-treated control group): 30 min before the test, saline = 100
Method: Effect on CO2 -induced amnesia in mice Effect of the compound (I) on […] of passive avoidance response, induced by exposing mice to 100% CO2 gas, was evaluated. Male ICR mice (Japan Clea) aged 5 weeks were used. The experimental apparatus consisted of two chambers, in which one illuminated chamber (9×9×25 cm) was connected to a dark chamber (25×25×30 cm) with a guillotine door. Each mouse was placed in the illuminated chamber and then allowed to enter the dark one. When the mouse entered the dark chamber, the door was closed and AC 0.5 mA footshock was applied to the floor grid of the dark chamber. The mouse can memorize the experience after receiving the uncomfortable stimulus for a few weeks. Next, the consolidation processes of memory were disturbed by an experimental manipulation: Each mouse was placed under the hypoxic condition by being placed into a 4L desiccator filled with 100% CO2 gas, immediately after receiving the footshock in the dark chamber. When his respiratory function was stopped, the mouse was taken out from the desiccator and given an artificial respiration till recovering spontaneous respiration. This procedure disturbed the consolidation of the memory (experience of footshock). On the next day, a retention test was performed to see whether the mouse memorized the footshock or not. In the test, the mouse was again placed in the illuminated compartment and the latency to enter the dark compartment was measured. The mice subjected to hypoxia entered the dark compartment with short latency, 10-20 sec. […] The ameliorating effect of compounds on the amnesia induced by hypoxia was evaluated by the latency time, and was expressed as the percent change of the mean time of the vehicle-treated control group (Table 6.).

mice = assay: General Symptoms (Side Effects) in mice; assay type: in vivo; set-up: key: +++: marked; ++: moderate; +: mild; -: nondetected; conditions: i.p., observed for 4 hours; for Hypothermia / Sedation / Tremor: central effect; for Diarrhea / Mydriasis / Salivation: peripheral effect
Method: General Symptoms (Side Effects) Four mice were used for each group. Mice were placed in stainless steel cages (13×18×25 cm) and after a 1-hr habitation period the compounds were administered. […] Peripheral and central effects of the compounds were estimated with the incidences of diarrhea, salivation and mydriasis and with the incidences of tremor and sedation and a grade of hypothermia, respectively. The compounds which were soluble in saline were solubilized in saline and the other were suspended in 5% arabic gum solution. Each compound was administered intraperitoneally (i.p.).

[3] = dose 0.3 mg/kg, * P < 0.05, ** P < 0.01

In the case of `CCN1C(=O)CC2(CCN(C)CC2)C1=O` [RS-86, reference compound], the LD50 [1] is reported as 574 mg/kg, the selectivity ratio [1] is reported as 1910 and the minimal effective dose [2] is reported as 0.3 mg/kg. For the same compound, the “Anti-amnesia (latency, percent change of the mean time of the vehicle-treated control group)” value [2, 3] was 258%, the Hypothermia (mice) was “+++” and the Sedation (mice) was “+++”. For the same compound, the Tremor (mice) was “+”, the Diarrhea (mice) was “+++” and the Mydriasis (mice) was “++”. The Salivation (mice) was “+++”.
In the case of `CON1C(=O)CC2(CCN(C(=O)OCCBr)CC2)C1=O` [Example 22, 8-(2-Bromoethoxycarbonyl)-2-methoxy-2,8-diazaspiro[4,5]decane-1,3-dione], the “Anti-amnesia (latency, percent change of the mean time of the vehicle-treated control group)” value ([2]; dose 1.0 mg/kg, * P < 0.05) is reported as 311%, the Hypothermia (mice) is reported as “+” and the Sedation (mice) is reported as “+”. The Tremor (mice) was “-”, the Diarrhea (mice) was “+” and the Mydriasis (mice) was “+”. For the same compound, the Salivation (mice) was “+”.
With `CON1C(=O)CC2(CCN(C)CC2)C1=O.Cl` [Example 1, 2-Methoxy-8-methyl-2,8-diazaspiro[4,5]decane-1,3-dione hydrochloride] the “Anti-amnesia (latency, percent change of the mean time of the vehicle-treated control group)” value ([2]; dose 0.1 mg/kg, * P < 0.05) was 277%, the Hypothermia (mice) was “-” and the Sedation (mice) was “++”. The Tremor (mice) was “++”, the Diarrhea (mice) was “-” and the Mydriasis (mice) was “-”. For the same compound, the Salivation (mice) was “+++”.
With `CON1C(=O)CC2(CCNCC2)C1=O` [Example 9, 2-Methoxy-2,8-diazaspiro[4,5]decane-1,3-dionehydrochloride] the LD50 [1] was 2010 mg/kg, the selectivity ratio [1] was 20100 and the minimal effective dose [2] was 0.1 mg/kg. The “Anti-amnesia (latency, percent change of the mean time of the vehicle-treated control group)” value ([2]; dose 0.1 mg/kg, * P < 0.05) was 227%, the “Anti-amnesia (latency, percent change of the mean time of the vehicle-treated control group)” value [2, 3] was 321% and the Hypothermia (mice) was “+”. The Sedation (mice) was “++”, the Tremor (mice) was “-” and the Diarrhea (mice) was “++”. For the same compound, the Mydriasis (mice) was “-” and the Salivation (mice) was “+++”.
